The text below walks through data of patent publication US20250204541A1, “GAS PHASE TREATMENT OF PRODUCE” (priority 2022, published 2025).

One experiment concerns Botrytis cinerea (Bc). Put plainly: Antifungal activity of AITC vapor against Botrytis cinerea in strawberries. Format: in vivo. The conditions noted are these: for strawberries infected: Example 14, ambient temperature, day 6. On the procedure:
Example 13. The antifungal activity of AITC vapor against Bc in strawberries was tested. All samples were wounded by making a 3 mm deep puncture in the skin. Samples were infected by dispensing 1000 Bc spores suspended in 10 μL of water in the wound. Samples were then incubated at ambient temperature, imaged, and assessed for mold over the following 3 days. The test group consisted of strawberries that were: uninfected and untreated; infected and untreated; and exposed for 30 minutes to the vapor of 125 μL AITC dispensed on Whatman filter paper. […] The infection rates in the initially uninfected sample indicate that the step involving the initial infection of the wound by dispensing the Bc spores may not be necessary to promote infection in the test groups.
Example 14. The antifungal activity of a range of AITC vapor concentrations against Bc in strawberries was tested. Samples were treated by exposure for 30 minutes to the vapor of a range of volumes of AITC disposed on a filter paper disc, then incubated at ambient temperature, imaged, and assessed for mold over the following 6 days. Test groups consisted of strawberries that were untreated and strawberries exposed to the vapor of 62.5 μL, 125 μL, 250 μL, and 500 μL of AITC. […] On day 6, 83% of the untreated control strawberries were infected, 100% of the 62.5 μL AITC dose strawberries were infected, 13% of the 125 μL AITC dose strawberries were infected, and 0% of the 250 and 500 μL AITC dose strawberries were infected. For strawberries incubated at room temperature, all of the AITC doses above 62.5 μL were effective at preventing mold, with doses above 125 μL substantially eliminating mold.
Example 15. The antifungal activity of AITC vapor under different exposure conditions against Bc in strawberries was tested. Test groups consisted of strawberries that were untreated and treated by exposure for 30 minutes to the vapor of 125 μL of AITC disposed on a filter paper disc. Test groups were then incubated in either open or closed containers at 4° C., imaged, and assessed for mold over the following 14 days. […] All samples were free of mold through 7 days. On day 12, 16.7% of the open air controls were infected, 29.2% of closed container controls were infected, and 0% of the AITC treated were infected. On day 14, 33.3% of the open air controls were infected, 41.7% of closed container controls were infected, 0% of the open air AITC treated were infected, and 4.2% of the closed container AITC treated were infected. For strawberries incubated at 4° C., AITC treatment was effective in reducing the incidence of mold over a two week period. While ⅓ of the open air untreated samples were infected, none of the open air AITC-treated were infected. Over 40% of the closed container controls were infected. A single strawberry was infected in the closed container AITC-treated test group.
Example 16. The antifungal activity of AITC vapor against Bc in strawberries treated with a coating agent (95 wt % glyceryl monostearate and 5 wt % sodium stearate) and exposed to vapor in clamshells was tested. Test groups consisted of strawberries that were: untreated; dipped in 40 g/L solution of the coating agent; exposed for 30 minutes to the vapor of 125 μL of AITC disposed on a filter paper disc; and dipped in 40 g/L solution of the coating agent and exposed for 30 minutes to the vapor of 125 μL of AITC disposed on a filter paper disc. Samples were treated, incubated at ambient temperature, imaged, and assessed for mold over the following 4 days. […] On day 3, 52.8% of the controls were infected, 42.1% of the coating agent were infected, 26.3% of the AITC were infected, and 9.3% of the coating agent+AITC were infected. On day 4, 88.9% of the controls were infected, 76.3% of the coating agent were infected, 71% of the AITC were infected, and 34.9% of the coating agent+AITC were infected. […] Bowl dipping in the coating solution also presented challenges for drying around the calyx.
Example 17. […]

Experiment [1] has as its system Colletotrichum gloeosporioides (Cg). Description: Antifungal activity of vapor against Colletotrichum gloeosporioides in avocados. It is filed as in vivo. The conditions noted are these: Example 22, 30 minutes vapor of 62.5-500 μL on filter paper disc, assessed on day 5.

On to `C=CCN=C=S` [AITC, allyl isothiocyanate], for which the “samples showing visible mold” value with Botrytis cinerea (Bc) (Example 13, strawberries, 30 minutes vapor of 125 μL, after 24 hours) is given as “no mold was visible”. The “fraction of samples showing visible mold” value is reported as “⅛” in the experiment on Botrytis cinerea (Bc) (Example 13, strawberries, 30 minutes vapor of 125 μL, after 48 hours) and “¼” in the experiment on Botrytis cinerea (Bc) (Example 13, strawberries, 30 minutes vapor of 125 μL, after 72 hours). The strawberries infected worked out at 100% with Botrytis cinerea (Bc) (62.5 μL dose, 30 minutes); 13% in the experiment with Botrytis cinerea (Bc) (125 μL dose, 30 minutes); 0% in the experiment with Botrytis cinerea (Bc) (250 μL dose, 30 minutes); 0% in the experiment with Botrytis cinerea (Bc) (500 μL dose, 30 minutes). Besides, the infected with Botrytis cinerea (Bc) (Example 15, strawberries, 125 μL, 30 minutes, 4° C., closed container, day 14) is listed as 4.2%; in the experiment on Botrytis cinerea (Bc) (Example 15, strawberries, 125 μL, 30 minutes, 4° C., open air, day 14), 0%; with Botrytis cinerea (Bc) (Example 15, strawberries, 125 μL, 30 minutes, 4° C., open or closed containers, day 12) it was 0%; in the experiment with Botrytis cinerea (Bc) (Example 16, strawberries in clamshells, coating agent 40 g/L dip, AITC 125 μL 30 minutes, ambient, day 3), 26.3%; in the experiment with Botrytis cinerea (Bc) (Example 16, strawberries in clamshells, coating agent 40 g/L dip, AITC 125 μL 30 minutes, ambient, day 4) it was 71%. In addition, the “mold” value with Botrytis cinerea (Bc) (Example 15, strawberries, 125 μL, 30 minutes, incubated at 4° C., through 7 days) is on record as “free of mold”. The “incidence of Cg mold” value in experiment [1] is “reduced the incidence of Cg mold compared to the untreated samples, the samples treated with coating agent, and the prochloraz treated sample”.
